≈ marks a conversion by molar mass, not a printed value. Read-outs that look alike come from different tables or passages of the source.
Tests used:
[1] = test system: Enterococcus faecalis ATCC 29212; assay: MIC range and interpretive result on gram-positive reference strain; assay type: cell-based; details: for Interpretive result: MIC range against breakpoints LB + UB; for MIC range: data validated by MERLIN Diagnostika GmbH
Description: (§1) Determining the susceptibility with the microtiter plate 1 depends on the rehydration of antibiotics by the addition of a standardised bacterial suspension. The result is measured after 18-24 hours incubation at 35-37° C. photometrically with MICRONAUT Skan or another suitable photometer and analysed with MICRONAUT Software or visually read and interpreted.
(§2) Test Procedure 1. Gram Preparation: • Gram-positive bacteria appear blue, gram-negative bacteria red. It is recomended that the gram stain is determined according to standard protocol or the recommendations on the manufacturer's kit. 2. Inoculum Production • Prepare a test tube with 5 ml NaCl 0.9% pH 5.5 to 6.5. • Remove several individually located colonies of a pure culture which is 18-24 hours old from the blood agar (without additives). • Homogenise the colonies well in 5 ml NaCl 0.9% until the turbidity corresponds to a McFarland of 0.5. 3. Inoculation in Broth • 3.1 Mueller-Hinton broth or modified ISO-Sensitest broth. • For gram-negative bacteria, 50 μl of the bacterial suspension is pipetted into 11 ml Mueller-Hinton II broth or modified ISO-Sensitest broth and well homogenised. • For gram-positive bacteria, 100 μl of the bacterial suspension is pipetted into 11 ml Mueller-Hinton II broth or modified ISO-Sensitest broth and well homogenised. • 3.2H-Broth • For fastidious bacteria, 200 μl of the bacterial suspension is transferred into 11 ml preheated H-Broth and homogenised. 4. Inoculation (Broth-Microdilution) • Remove microtiter plate from the individual packaging max. 30 minutes before inoculation and dispose of the dessicant. • Label test plate. • Dispense the prepared suspension according to the plate layout into a 2-channel reservoir. • The inoculation of the microtiter plate is carried out manually with a multi-channel pipette, 100 μl per well. 5. Sealing and Incubation • 5.1 Mueller-Hinton II broth or modified ISO-Sensitest broth • After inoculating seal the test plates with an unperforated adhesive film or cover with an unused microtiter plate (max. 5 test plates stacked). • Incubate test plate 18-24 hours at 35-37° C. • 5.2H-Broth • After inoculating the test plates cover with an unused microtiter plate or with a perforated cover film. • Incubate test plate 22 to 24 hours at 35 to 37° C. in the incubator with CO2 gassing. 6. Reading • Remove adhesive film. • Wipe test plate from below. • Reading of test plate with photometer or visually. 7. Analysis • The bacterial growth is determined using a photometric measurement at a wave length of 620 nm or 690 nm—according to the broth used. • The result is analysed, interpreted and checked for its plausibility by means of MICRONAUT Software. The growth control must be overgrown (turbid), otherwise the test must be repeated. With visual readout the results should be recorded on a plate layout plan. The test result can be seen on the screen or on the findings report. 8. Interpretation of the Results
(§3) Breakpoint Interpretation • For antibiotics which are tested in four or fewer consecutive concentrations or in non-consecutive concentrations, interpreting categories are determined, namely susceptible, intermediate and resistant, on the basis of low and upper breakpoint MIC values (See attachment: Tables IIA and IIB, Tables IIIA, IIIB, IIIC and IIID and Table IV). The lower breakpoint (LB) is represented by the MIC value which prevents sufficient and visible bacterial growth, ie the bacterial isolate is susceptible to the antibiotic. […] Using MICRONAUT Software, MIC values can be automatically analysed and interpreted for a given bacterial isolate and antibiotic. […]

[2] = test system: Staphylococcus aureus ATCC 29213; assay: as above; assay type: cell-based; details: for Interpretive result: MIC range against breakpoints LB + UB; for MIC range: data validated by MERLIN Diagnostika GmbH
Description: as §1, §2, §3

[3] = test system: Pseudomonas aeruginosa ATCC 27853; assay: MIC range and interpretive result on gram-negative reference strain; assay type: cell-based; details: for Interpretive result: MIC range against breakpoints LB + UB; for MIC range: data validated by MERLIN Diagnostika GmbH
Description: as §1, §2, §3

[4] = test system: Escherichia coli ATCC 25922; assay: as above; assay type: cell-based; details: for Interpretive result: MIC range against breakpoints LB + UB; for MIC range: data validated by MERLIN Diagnostika GmbH
Description: as §1, §2, §3

[5] = test system: Staphylococcus aureus ATCC 29213; details: taken from NCCLS, M31-A2, 2002; cited from earlier work
[6] = test system: Enterococcus faecalis ATCC 29212; details: taken from NCCLS, M31-A2, 2002; cited from earlier work
[7] = test system: Escherichia coli ATCC 25922; details: taken from NCCLS, M31-A2, 2002; cited from earlier work
[8] = test system: Pseudomonas aeruginosa ATCC 27853; details: taken from NCCLS, M31-A2, 2002; cited from earlier work
[9] = test system: S.E. Sm24/Rif12/Ssq (vaccine strain); assay: Broth microdilution MIC, resistance marker discrimination, vaccine strain S.E. Sm24/Rif12/Ssq; assay type: cell-based, Salmonella Enteritidis; details: chicken, validated at Lohmann Animal Health
Description: as §1
(§4) Test Procedure 1. Gram Preparation: • Gram-positive bacteria appear blue, gram-negative bacteria red. It is recomended that the gram stain is determined according to standard protocol or the recommendations on the manufacturer's kit. 2. Inoculum Production • Prepare a test tube with 5 ml NaCl 0.9% pH 5.5 to 6.5. • Remove several individually located colonies of a pure culture which is 18-24 hours old from the blood agar (without additives). • Homogenise the colonies well in 5 ml NaCl 0.9% until the turbidity corresponds to a McFarland of 0.5. 3. […] Reading • Remove adhesive film. • Wipe test plate from below. • Reading of test plate with photometer or visually. […] Analysis • The bacterial growth is determined using a photometric measurement at a wave length of 620 nm or 690 nm—according to the broth used. • The result is analysed, interpreted and checked for its plausibility by means of MICRONAUT Software. […] With visual readout the results should be recorded on a plate layout plan. […]
as §3, with “IV).” for “IV). The lower breakpoint (LB) is represented by the MIC value which prevents sufficient and visible bacterial growth, ie the bacterial isolate is susceptible to the antibiotic.”

[10] = test system: S.E. Leipzig (field strain); assay: Broth microdilution MIC, resistance marker discrimination, field strain S.E. Leipzig; assay type: cell-based, Salmonella Enteritidis; details: chicken, validated at Lohmann Animal Health
Description: as §1, §4
as §3, with “IV).” for “IV). The lower breakpoint (LB) is represented by the MIC value which prevents sufficient and visible bacterial growth, ie the bacterial isolate is susceptible to the antibiotic.”

[11] = test system: S.Tm. Nal2/Rif9/Rtt (vaccine strain); assay: Broth microdilution MIC, resistance marker discrimination, vaccine strain S.Tm. Nal2/Rif9/Rtt; assay type: cell-based, Salmonella Typhimurium; details: chicken, validated at Lohmann Animal Health
Description: as §1
as §4, with “2.” for “2. Inoculum Production • Prepare a test tube with 5 ml NaCl 0.9% pH 5.5 to 6.5. • Remove several individually located colonies of a pure culture which is 18-24 hours old from the blood agar (without additives). • Homogenise the colonies well in 5 ml NaCl 0.9% until the turbidity corresponds to a McFarland of 0.5. 3.”
(§5) Breakpoint Interpretation • For antibiotics which are tested in four or fewer consecutive concentrations or in non-consecutive concentrations, interpreting categories are determined, namely susceptible, intermediate and resistant, on the basis of low and upper breakpoint MIC values (See attachment: Tables IIA and IIB, Tables IIIA, IIIB, IIIC and IIID and Table IV). […]

[12] = test system: S.Tm. Moskau 415 (field strain); assay: Broth microdilution MIC, resistance marker discrimination, field strain S.Tm. Moskau 415; assay type: cell-based, Salmonella Typhimurium; details: chicken, validated at Lohmann Animal Health
Description: as §1
as §4, with “2.” for “2. Inoculum Production • Prepare a test tube with 5 ml NaCl 0.9% pH 5.5 to 6.5. • Remove several individually located colonies of a pure culture which is 18-24 hours old from the blood agar (without additives). • Homogenise the colonies well in 5 ml NaCl 0.9% until the turbidity corresponds to a McFarland of 0.5. 3.”
as §5

In the case of `CCC[C@@H]1C[C@@H](C(=O)N[C@@H]([C@H]2O[C@H](SC)[C@H](O)[C@@H](O)[C@H]2O)[C@@H](C)O)N(C)C1` [Lincomycin], the Interpretive result [1] is reported as “R”, the MIC range [1] is reported as 8 to 32 µg/mL and the Interpretive result [2] is reported as “S/I”. For the same compound, the MIC range [2] was 0.5 to 2 µg/mL, the Interpretive result [3] was “R” and the MIC range [3] was 32 µg/mL (≈ 78.7 µM).

With `CN(C)[C@@H]1C(O)=C(C(N)=O)C(=O)[C@@]2(O)C(O)=C3C(=O)c4c(O)cccc4[C@@](C)(O)[C@H]3C[C@@H]12` [Tetracycline] the Interpretive result [1] was “I/R”, the Interpretive result [2] was “S” and the Interpretive result [4] was “S”. For the same compound, the Interpretive result [3] was “R”.

For Neomycin, the Interpretive result [1] was “R”, the MIC range [1] was 16 to 64 µg/mL and the Interpretive result [2] was “S”. The MIC range [2] was 0.5 to 2 µg/mL, the Interpretive result [4] was “S” and the MIC range [4] was 0.5 to 2 µg/mL.

In the case of `C=C[C@]1(C)C[C@@H](OC(=O)CSCCN(CC)CC)[C@]2(C)[C@H](C)CC[C@]3(CCC(=O)[C@H]32)[C@@H](C)[C@@H]1O` [Tiamulin], the Interpretive result [2] is listed as “S” and the MIC range [5] is listed as 0.5 to 2.0 µg/mL.

With `CCN1CCN(c2cc3c(cc2F)c(=O)c(C(=O)O)cn3C2CC2)CC1` [Enrofloxacin] the Interpretive result [1] was “S/I”, the Interpretive result [2] was “S” and the Interpretive result [4] was “S”. The Interpretive result [3] was “I/R”, the MIC range [5] was 0.03 to 0.12 µg/mL and the MIC range [6] was 0.12 to 1 µg/mL. The MIC range [7] was 0.008 to 0.03 µg/mL and the MIC range [8] was 1 to 4 µg/mL.

`[H]/N=C(/N)N[C@H]1[C@H](O)[C@@H](O)[C@H](O[C@@H]2O[C@@H](C)[C@](O)(C=O)[C@H]2O[C@@H]2O[C@@H](CO)[C@H](O)[C@@H](O)[C@@H]2NC)[C@@H](N/C(N)=N\[H])[C@@H]1O` [Streptomycin] showed an MIC range [9] greater than 200 µg/mL and an MIC range [10] of less than 200 µg/mL.

For Colistin, the Interpretive result [2] was “R”, the MIC range [2] was 64 µg/mL and the Interpretive result [4] was “S”. For the same compound, the MIC range [4] was “≦0.5 μg/ml”, the Interpretive result [3] was “S/I” and the MIC range [3] was 0.5 to 2 µg/mL.

In the case of `CN[C@@H]1[C@H](O)[C@H](NC)[C@H]2O[C@@]3(O)C(=O)C[C@@H](C)O[C@H]3O[C@@H]2[C@H]1O` [Spectinomycin], the Interpretive result [1] is reported as “R”, the Interpretive result [2] is reported as “R” and the Interpretive result [4] is reported as “S/R”. For the same compound, the MIC range [5] was 64 to 256 µg/mL, the MIC range [6] was 64 to 256 µg/mL and the MIC range [7] was 8 to 64 µg/mL.

In the case of `CC1(C)S[C@@H]2[C@H](NC(=O)[C@H](N)c3ccccc3)C(=O)N2[C@H]1C(=O)O` [Ampicillin], the Interpretive result [1] is given as “S”, the Interpretive result [4] is given as “S” and the MIC range [6] is given as 0.5 to 2 µg/mL. The MIC range [7] was 2 to 8 µg/mL.

In the case of `CC[C@H]1OC(=O)[C@H](C)[C@@H](O[C@H]2C[C@@](C)(OC)[C@@H](O)[C@H](C)O2)[C@H](C)[C@@H](O[C@@H]2O[C@H](C)C[C@H](N(C)C)[C@H]2O)[C@](C)(O)C[C@@H](C)C(=O)[C@H](C)[C@@H](O)[C@]1(C)O` [Erythromycin], the MIC range [9] is reported as “≦5 μg/ml”, the MIC range [10] is reported as “≧20 μg/ml” and the MIC range [11] is reported as “≦5 μg/ml”. For the same compound, the MIC range [12] was “≧20 μg/ml”, the Interpretive result [1] was “I” and the Interpretive result [2] was “S/I”. The MIC range [5] was 0.12 to 1 µg/mL and the MIC range [6] was 1 to 4 µg/mL.

For `CC1(C)S[C@@H]2[C@H](NC(=O)Cc3ccccc3)C(=O)N2[C@H]1C(=O)O` [Penicillin G], the Interpretive result [1] is given as “S”, the Interpretive result [2] is given as “R” and the MIC range [5] is given as 0.25 to 2 µg/mL. The MIC range [6] was 1 to 4 µg/mL.

With `CO/N=C(\C(=O)N[C@@H]1C(=O)N2C(C(=O)O)=C(CSC(=O)c3ccco3)CS[C@H]12)c1csc(N)n1` [Ceftiofur] the Interpretive result [2] was “S”, the Interpretive result [4] was “S” and the Interpretive result [3] was “R”. For the same compound, the MIC range [5] was 0.25 to 1 µg/mL, the MIC range [7] was 0.25 to 1 µg/mL and the MIC range [8] was 16 to 64 µg/mL.

Work on `CO[C@H]1/C=C/O[C@@]2(C)Oc3c(C)c(O)c4c(O)c(c(/C=N/N5CCN(C)CC5)c(O)c4c3C2=O)NC(=O)/C(C)=C\C=C\[C@H](C)[C@H](O)[C@@H](C)[C@@H](O)[C@@H](C)[C@H](OC(C)=O)[C@@H]1C` [Rifampicin] yielded an MIC range [9] greater than 50 µg/mL, an MIC range [10] of less than 50 µg/mL and an MIC range [11] greater than 50 µg/mL. It also gave an MIC range [12] of less than 50 µg/mL.

For Gentamicin, the Interpretive result [1] was “S/I/R”, the Interpretive result [2] was “S” and the Interpretive result [4] was “S”. For the same compound, the Interpretive result [3] was “S”, the MIC range [5] was 0.12 to 1 µg/mL and the MIC range [6] was 4 to 16 µg/mL. The MIC range [7] was 0.25 to 1 µg/mL and the MIC range [8] was 0.5 to 2 µg/mL.

For `Cc1onc(-c2ccccc2)c1C(=O)N[C@@H]1C(=O)N2[C@@H]1SC(C)(C)[C@@H]2C(=O)O` [Oxacillin], the Interpretive result [1] is listed as “R”, the Interpretive result [2] is listed as “S” and the MIC range [5] is listed as 0.12 to 0.5 µg/mL. The MIC range [6] was 8 to 32 µg/mL.
